US20100216724A1, “USE OF F[…] (196-203 ) AS A […] AGENT” (priority 2007, published 2010)
Where no end group is shown, it is not given here.

Experiments:
[1] = test system: HIV-1IIIB; assay: HIV-1 antiviral assay (CPE reduction, MTS) in CEM-SS cells; assay type: cell-based; details: test peptide 10 micrograms per ml, 6 days post-infection
[2] = Cytotoxicity (MTS cell viability) in the HIV-1 assay; details: human, CEM-SS cells
[3] = test system: MRSA; details: MRSA growth; peptide 10 micrograms per ml; read visually
[4] = test system: Streptococcus pneumoniae; assay: Streptococcus pneumoniae assay; assay type: cell-based; details: Streptococcus pneumoniae growth; peptide 10 micrograms per ml; read visually
[5] = test system: Pseudomonas aeruginosa; assay: Pseudomonas aeruginosa assay; assay type: cell-based; details: Pseudomonas aeruginosa growth; peptide 10 micrograms per ml; read visually
[6] = Cytotoxicity testing (CellTiter 96) in MRC-5 cells; assay type: cell-based; details: human, MRC-5 cells (human embryonal lung fibroblasts), 6 days incubation, read-out: % Cell viability
Protocol: Ganciclovir was used as positive control. […] For cytotxicity testing, MRC-5 cells were seeded at 2,500 cells/well in 96 well plates using growth medium. […] The following day, peptide were added and tested in duplicates. After a 6 days incubation period, cell viability was measured using CellTiter 96 Solution (Promega). Plates were incubated for additional 4 hours at 37° C.

[7] = in vitro; details: human, HepG2-2.2.15 cells

Molecule	% CPE reduction in HIV-1 infected CEM-SS cells [1] [%]	viability at 10 micrograms per ml [2] [%]	% inhibition [3] [%]	% inhibition [4] [%]	% inhibition [5] [%]	viability at 144 h [6] [%]	viability at 144 h, 10 micrograms per ml [7] [%]
Cc1cn([C@H]2C[C@H](N=[N+]=[N-])[C@@H](CO)O2)c(=O)[nH]c1=O [AZT]	99						
SRNRCNDQ-NH2		100	0.0	0.0	0.0	100	100
